Source: the supplement of paper PMC10331698
± gives the standard deviation of the averaged measurements.

Columns and labels:
Experiment in all cases: level (log10 ratio to DMSO vehicle control); higher = higher biomarker level / cell amount than vehicle control
Details in all cases: in DMSO
[1] = compound: O=C(O)C(F)(F)C(F)(F)C(F)(F)OC(F)(C(F)(F)F)C(F)(F)F [Perfluoro-4-isopropoxybutanoic acid]
Description: (§1)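 BioMAP Diversity Plus panel of 12 human primary cell co-culture systems (3C, 4H, LPS, SAg, BT, BF4T, BE3C, CASM3C, HDF3CGF, KF3CT, MyoF, Mphg). Compounds were added 1 h before stimulation and left for 24 h (MyoF 48 h; BT 72 h for soluble read-outs or 6 d for IgG). Biomarkers were read by ELISA, cytotoxicity by SRB, PBMC viability and proliferation by Alamar Blue. Each well value was divided by the mean of 8 DMSO control wells on the same plate and log10 transformed; duplicate blinded samples were tested at 4 concentrations.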

Heptafluorobutyramide = compound: NC(=O)C(F)(F)C(F)(F)C(F)(F)F [Heptafluorobutyramide]
Description: as §1

[2] = compound: C=C(C)C(=O)OCCC(F)(F)C(F)(F)C(F)(F)C(F)(F)C(F)(C(F)(F)F)C(F)(F)F [(Perfluoro-5-methylhexyl)ethyl 2-methylprop-2-enoate]
Description: as §1

[3] = compound: O=S(=O)(O)C(F)(F)C(F)(F)C(F)(F)C(F)(F)C(F)(F)C(F)(F)F [Perfluorohexanesulfonic acid]
Description: as §1

[4] = compound: FC(F)(F)C(F)(F)C(F)(F)C(F)(F)C(F)(F)CCI [1-Iodo-1H,1H,2H,2H-perfluoroheptane]
Description: as §1

Perfluoropentanoic acid = compound: O=C(O)C(F)(F)C(F)(F)C(F)(F)C(F)(F)F [Perfluoropentanoic acid]
Description: as §1

[5] = compound: COC(=O)CCC(F)(F)C(F)(F)C(F)(F)C(F)(F)F [Methyl 2H,2H,3H,3H-perfluoroheptanoate]
Description: as §1

Test System | level (log10) ([1]; 6700 nM) | level (log10) ([1]; 20000 nM) | level (log10) ([1]; 60000 nM) | level (log10) (Heptafluorobutyramide; 6700 nM) | level (log10) (Heptafluorobutyramide; 20000 nM) | level (log10) (Heptafluorobutyramide; 60000 nM) | level (log10) ([2]; 6700 nM) | level (log10) ([2]; 20000 nM) | level (log10) ([3]; 6700 nM) | level (log10) ([3]; 20000 nM) | level (log10) ([3]; 60000 nM) | level (log10) ([4]; 6700 nM) | level (log10) ([4]; 20000 nM) | level (log10) ([4]; 60000 nM) | level (log10) (Perfluoropentanoic acid; 6700 nM) | level (log10) (Perfluoropentanoic acid; 20000 nM) | level (log10) (Perfluoropentanoic acid; 60000 nM) | level (log10) ([5]; 6700 nM) | level (log10) ([5]; 20000 nM) | level (log10) ([5]; 60000 nM)
lMphg:CD62E/E-Selectin | -0.011 ± 0.027 | 0.007 ± 0.038 | 0.0005 ± 0.039 | 0.035 ± 0.051 | -0.009 ± 0.064 | -0.0285 ± 0.054 | -0.0135 ± 0.011 | -0.01 ± 0.017 | 0.0145 ± 0.00071 | 0.019 ± 0.0099 | 0.0955 ± 0.035 | -0.021 ± 0.067 | -0.0215 ± 0.018 | -0.028 ± 0.0028 | 0.012 ± 0.0057 | -0.008 ± 0.014 | 0.003 ± 0.042 | -0.004 ± 0.0028 | -0.0245 ± 0.016 | -0.0075 ± 0.018
BE3C:PAI-I | -0.0155 ± 0.028 | 0.002 ± 0.017 | 0.0115 ± 0.032 | -0.0065 ± 0.00071 | -0.0025 ± 0.00071 | -0.0115 ± 0.015 | 0.007 ± 0.03 | 0.0205 ± 0.019 | 0.0035 ± 0.00071 | -0.003 ± 0.0085 | 0.001 ± 0.0014 | -0.025 ± 0.061 | -0.0105 ± 0.056 | 0.008 ± 0.1 | -0.021 ± 0.0071 | -0.02 ± 0.0057 | 0.015 ± 0.057 | -0.0065 ± 0.025 | -0.006 ± 0.044 | -0.0055 ± 0.005
lMphg:M-CSF | -0.016 ± 0.0028 | -0.0185 ± 0.015 | 0.016 ± 0.0085 | -0.014 ± 0.018 | -0.034 ± 0.025 | -0.0135 ± 0.00071 | -0.005 ± 0.042 | 0.015 ± 0.042 | -0.0105 ± 0.033 | 0.0005 ± 0.011 | 0.0135 ± 0.022 | -0.043 ± 0.03 | -0.0355 ± 0.012 | -0.007 ± 0.013 | -0.028 ± 0.045 | 0.006 ± 0.035 | 0.0095 ± 0.049 | -0.0325 ± 0.0078 | -0.0275 ± 0.005 | 0.0075 ± 0.022
MyoF:alpha-SM Actin | 0.0045 ± 0.023 | 0.008 ± 0.033 | 0.026 ± 0.052 | 0.0105 ± 0.033 | -0.004 ± 0.033 | 0.0015 ± 0.018 | -0.018 ± 0.037 | -0.0255 ± 0.04 | 0.012 ± 0.0071 | 0.006 ± 0.021 | 0.008 ± 0.031 | -0.0265 ± 0.029 | -0.003 ± 0.018 | -0.009 ± 0.0071 | 0.0265 ± 0.07 | 0.0355 ± 0.052 | 0.0485 ± 0.044 | -0.009 ± 0.024 | -0.007 ± 0.02 | -0.0035 ± 0.04
CASM3C:CD87/uPAR | -0.0225 ± 0.046 | -0.0265 ± 0.052 | 0.003 ± 0.014 | -0.0065 ± 0.026 | -0.0115 ± 0.032 | -0.033 ± 0.054 | -0.0305 ± 0.013 | -0.035 | 0.007 ± 0.0014 | 0.001 ± 0.0057 | 0.0065 ± 0.012 | 0.008 ± 0.016 | -0.0075 ± 0.0078 | -0.0265 ± 0.037 | -0.027 ± 0.052 | -0.031 ± 0.027 | -0.0175 ± 0.005 | -0.029 ± 0.035 | -0.0275 ± 0.026 | -0.0185 ± 0.022
BE3C:MMP-9 | 0.0235 ± 0.033 | 0.0185 ± 0.044 | 0.0645 ± 0.067 | -0.0135 ± 0.021 | 0.005 ± 0.0071 | 0.0005 ± 0.012 | 0.0245 ± 0.039 | 0.022 ± 0.044 | 0.0095 ± 0.026 | 0.014 ± 0.0071 | 0.0275 ± 0.00071 | -0.0125 ± 0.0092 | 0.026 ± 0.0099 | 0.0525 ± 0.021 | -0.0325 ± 0.0078 | -0.0105 ± 0.015 | 0.0215 ± 0.035 | -0.001 ± 0.011 | -0.0065 ± 0.023 | -0.0155 ± 0.013
MyoF:Collagen IV | -0.007 ± 0.035 | -0.0025 ± 0.06 | 0.014 ± 0.047 | -0.0185 ± 0.019 | -0.01 ± 0.0028 | 0.0275 ± 0.023 | 0.025 ± 0.02 | 0.058 ± 0.1 | -0.023 ± 0.018 | -0.0065 ± 0.032 | 0 ± 0.031 | 0.03 ± 0.0071 | 0.0715 ± 0.0035 | 0.072 ± 0.028 | -0.007 ± 0.025 | -0.012 ± 0.016 | -0.0025 ± 0.023 | -0.0335 ± 0.03 | -0.0285 ± 0.021 | -0.0115 ± 0.029
MyoF:bFGF | -0.014 ± 0.016 | -0.0225 ± 0.026 | -0.004 ± 0.027 | -0.0155 ± 0.021 | 0.004 ± 0.016 | -0.001 ± 0.013 | -0.0015 ± 0.005 | 0.002 ± 0.0014 | 0.0035 ± 0.005 | 0.005 ± 0.0085 | 0.004 ± 0.014 | 0.0005 ± 0.0078 | 0.005 ± 0.011 | 0.046 ± 0.013 | -0.021 ± 0.0014 | -0.0085 ± 0.0078 | -0.0055 ± 0.0035 | -0.0125 ± 0.012 | -0.008 ± 0.013 | -0.0075 ± 0.019
lMphg:CD106/VCAM-1 | -0.0135 ± 0.013 | 0.0015 ± 0.028 | 0.014 ± 0.0057 | 0.011 ± 0.014 | 0.004 ± 0.0071 | 0.013 ± 0.0028 | -0.0315 ± 0.011 | -0.014 ± 0.0057 | -0.011 ± 0.044 | 0.0075 ± 0.0035 | 0.005 ± 0.011 | 0.005 | -0.004 ± 0.0042 | -0.017 ± 0.011 | 0.005 ± 0.02 | 0.0125 ± 0.018 | 0.016 ± 0.0057 | -0.0055 ± 0.012 | 0.009 ± 0.0057 | 0.0055 ± 0.037
MyoF:CXCL8/IL-8 | 0.0195 ± 0.06 | 0.077 ± 0.079 | 0.0735 ± 0.074 | -0.0015 ± 0.023 | -0.014 ± 0.011 | 0.002 ± 0.0099 | -0.011 ± 0.011 | -0.0255 ± 0.0064 | 0.001 ± 0.061 | -0.0185 ± 0.063 | -0.018 ± 0.051 | -0.0015 ± 0.019 | 0.028 ± 0.018 | 0.043 ± 0.038 | -0.008 ± 0.02 | 0.01 ± 0.0071 | 0.024 ± 0.014 | -0.0085 ± 0.00071 | -0.001 ± 0.0071 | 0.0155 ± 0.039
lMphg:SRB-Mphg | -0.0085 ± 0.012 | -0.0025 ± 0.005 | -0.019 ± 0.0028 | -0.038 ± 0.0071 | -0.0175 ± 0.0021 | 0.0155 ± 0.036 | 0.0015 ± 0.011 | -0.0095 ± 0.021 | 0.0015 ± 0.074 | 0.013 ± 0.0071 | 0.0255 ± 0.018 | 0.004 ± 0.0028 | -0.0015 ± 0.0035 | 0.009 ± 0.013 | -0.0125 ± 0.022 | 0.001 ± 0.0071 | 0.006 ± 0.017 | -0.0285 ± 0.012 | -0.022 ± 0.095 | 0.04 ± 0.057
BE3C:uPA | -0.001 ± 0.0042 | 0.0025 ± 0.012 | 0.0185 ± 0.0064 | -0.011 ± 0.02 | -0.017 ± 0.024 | -0.0145 ± 0.019 | -0.001 ± 0.016 | -0.0005 ± 0.016 | 0.0145 ± 0.016 | -0.0005 ± 0.028 | 0.0115 ± 0.019 | 0.013 ± 0.011 | -0.0005 ± 0.019 | -0.0025 ± 0.033 | -0.0115 ± 0.0021 | -0.013 ± 0.0057 | 0.004 ± 0.018 | -0.013 ± 0.042 | -0.0155 ± 0.018 | -0.0155 ± 0.012
3C:CD54/ICAM-1 | 0.0075 ± 0.016 | -0.0085 ± 0.022 | 0.0285 ± 0.0078 | -0.023 ± 0.02 | -0.008 ± 0.0014 | -0.019 ± 0.016 | -0.009 ± 0.0014 | -0.01 ± 0.0071 | -0.002 ± 0.014 | -0.008 ± 0.0042 | 0.005 ± 0.0099 | 0.0055 ± 0.021 | 0.0015 ± 0.0092 | 0.0085 ± 0.005 | -0.0145 ± 0.03 | -0.028 ± 0.021 | -0.0075 ± 0.022 | -0.0175 ± 0.0078 | -0.017 | 0.002 ± 0.017
CASM3C:CCL2/MCP-1 | -0.0255 ± 0.012 | -0.0305 ± 0.005 | 0.027 ± 0.034 | -0.004 ± 0.0057 | -0.0145 ± 0.0021 | 0.015 ± 0.037 | 0.002 ± 0.023 | 0.0105 ± 0.005 | -0.0215 ± 0.018 | -0.013 ± 0.0085 | 0.0035 ± 0.00071 | -0.0045 ± 0.011 | -0.006 ± 0.028 | -0.001 ± 0.037 | -0.0085 ± 0.005 | -0.0125 ± 0.019 | -0.0015 ± 0.015 | -0.0075 ± 0.011 | -0.003 ± 0.0071 | 0.004 ± 0.03
KF3CT:CXCL10/IP-10 | 0.019 ± 0.034 | 0.017 ± 0.023 | 0.0235 ± 0.043 | 0.002 ± 0.0042 | 0.0015 ± 0.0078 | 0.005 ± 0.0099 | -0.0085 ± 0.012 | -0.0325 ± 0.00071 | -0.006 | -0.016 ± 0.0028 | -0.022 ± 0.016 | 0.0035 ± 0.00071 | 0.001 ± 0.013 | -0.0185 ± 0.00071 | 0.002 ± 0.0042 | -0.0085 ± 0.0035 | 0.0025 ± 0.016 | 0.005 ± 0.02 | -0.003 ± 0.0014 | -0.005 ± 0.0014
